Structures are written as SMILES.

One may read the EC50 as the concentration that produces a half-maximal response.

Holding throughout (format): biochemical
For one assay, the target named is T1, TYK2 (Homo sapiens, UniProt P29597).
T1 construct: JAK1 (aa 850-1154) and TYK2 (aa 871-1187) are expressed with an N-terminally fused GST-tag; GST (N); purchased Carna Biosciences, Inc; host or cells: baculovirus expression system
T1 sequence (P29597 871-1187): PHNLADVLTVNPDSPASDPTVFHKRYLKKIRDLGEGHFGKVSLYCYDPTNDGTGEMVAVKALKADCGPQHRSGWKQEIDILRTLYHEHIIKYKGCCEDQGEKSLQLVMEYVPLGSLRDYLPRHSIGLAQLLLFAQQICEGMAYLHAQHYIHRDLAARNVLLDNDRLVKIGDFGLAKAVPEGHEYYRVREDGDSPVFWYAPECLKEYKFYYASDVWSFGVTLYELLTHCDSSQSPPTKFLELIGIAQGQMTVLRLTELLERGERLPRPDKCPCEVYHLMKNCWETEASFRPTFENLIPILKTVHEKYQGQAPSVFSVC
The assay is described as follows: JAK kinase assay (HTRF, phosphorylation of synthetic peptide), TYK2. Particulars: catalytic domain, ATP at Km (13 μM); read-out: TYK2 kinase inhibitory activity (EC50). As for the experimental part: (§1) Human baculovirus-expressed JAK1, 2, 3 and TYK2 were purchased from Carna Biosciences, Inc. All four purified enzymes contain only the catalytic domain. JAK1 (aa 850-1154) and TYK2 (aa 871-1187) are expressed with an N-terminally fused GST-tag, and JAK2 and JAK3 with an N-terminally fused His-tag.
(§2) Inhibition of phosphorylation of a synthetic peptide was measured in an HTRF-based assay using the TK substrate-Biotin from the Cisbio HTRFKinEASE TK kit. First, 2 μl of TK solution (TK substrate-biotin in kinase buffer [1× enzymatic buffer from HTRFKinEASE TK kit, 1 mM DTT]) is added to a plate containing 1 μl prediluted compound (final assay concentration DMSO: 0.75%). Then, 5 μl kinase-ATP mix (prepared in kinase buffer) is added to the wells and the plates are incubated at RT for 20-30 min. For all four kinases a concentration of ATP that corresponded to the Km for ATP was used. The final concentrations of buffers, substrate, kinase and ATP were: JAK1: 50 mM Hepes buffer pH 7.0, 0.01% BSA, 10 mM MgCl2, 1 mM DTT, 7 μM ATP, 50 nM SEB, 1 μM TK Substrate-Biotin and 5 ng JAK1; JAK2: 50 mM Hepes buffer pH 7.0, 0.01% BSA, 5 mM MgCl2, 1 mM DTT, 4 μM ATP, 1 μM TK Substrate-Biotin and 0.1 ng JAK2; JAK3: 50 mM Hepes buffer pH 7.0, 0.01% BSA, 5 mM MgCl2, 1 mM DTT, 2 μM ATP, 1 μM TK Substrate-Biotin and 0.3 ng JAK3; TYK2: 50 mM Hepes buffer pH 7.0, 0.01% BSA, 5 mM MgCl2, 1 mM DTT, 13 μM ATP, 50 nM SEB, 1 μM TK Substrate-Biotin and 0.8 ng TYK2. Thereafter, the kinase reaction is stopped by adding 4 μl detection mix (final concentrations: 50 mM Hepes buffer pH 7.0, 0.01% BSA, 0.8 M KF, 20 mM EDTA, 42 nM Streptavidin-XL665 and 1:400 STK Ab Cryptate) and the plates are incubated overnight in the dark. The HTRF signal is read using an Envision plate reader.
On the technique in general: In TR-FRET formats the signal depends on donor and acceptor labels being close together.

The target in a further assay is T2, JAK1 (Homo sapiens, UniProt P23458).
T2 construct: JAK1 (aa 850-1154) and TYK2 (aa 871-1187) are expressed with an N-terminally fused GST-tag; GST (N); purchased Carna Biosciences, Inc; host or cells: baculovirus expression system
Put plainly: JAK kinase assay (HTRF, phosphorylation of synthetic peptide), JAK1. Particulars: catalytic domain, ATP at Km (7 μM); read-out: JAK1 kinase inhibitory activity (EC50). On the procedure:
as §1, §2

Another assay deals with T3, JAK3 (Homo sapiens, UniProt P52333).
T3 construct: All four purified enzymes contain only the catalytic domain; His (N); purchased Carna Biosciences, Inc; host or cells: baculovirus expression system
The assay is described as follows: JAK kinase assay (HTRF, phosphorylation of synthetic peptide), JAK3. As to conditions: catalytic domain, ATP at Km (2 μM); read-out: JAK3 kinase inhibitory activity (EC50). On the procedure:
as §1, §2

The target of a further assay is T4, JAK2 (Homo sapiens, UniProt O60674).
T4 construct: All four purified enzymes contain only the catalytic domain; His (N); purchased Carna Biosciences, Inc; host or cells: baculovirus expression system
Put plainly: JAK kinase assay (HTRF, phosphorylation of synthetic peptide), JAK2. Particulars: catalytic domain, ATP at Km (4 μM); read-out: JAK2 kinase inhibitory activity (EC50). As for the experimental part: as §1, §2

T2 sequence (P23458 850-1154): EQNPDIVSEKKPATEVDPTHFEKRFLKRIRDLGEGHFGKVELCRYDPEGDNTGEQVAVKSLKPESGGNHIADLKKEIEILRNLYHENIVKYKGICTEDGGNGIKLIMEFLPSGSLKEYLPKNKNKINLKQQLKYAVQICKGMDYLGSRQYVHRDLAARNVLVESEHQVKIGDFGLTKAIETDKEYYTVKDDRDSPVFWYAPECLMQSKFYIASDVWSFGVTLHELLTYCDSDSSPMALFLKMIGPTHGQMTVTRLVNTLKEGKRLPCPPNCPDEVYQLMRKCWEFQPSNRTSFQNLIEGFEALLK
T4 sequence (O60674 849-1124 limits assumed): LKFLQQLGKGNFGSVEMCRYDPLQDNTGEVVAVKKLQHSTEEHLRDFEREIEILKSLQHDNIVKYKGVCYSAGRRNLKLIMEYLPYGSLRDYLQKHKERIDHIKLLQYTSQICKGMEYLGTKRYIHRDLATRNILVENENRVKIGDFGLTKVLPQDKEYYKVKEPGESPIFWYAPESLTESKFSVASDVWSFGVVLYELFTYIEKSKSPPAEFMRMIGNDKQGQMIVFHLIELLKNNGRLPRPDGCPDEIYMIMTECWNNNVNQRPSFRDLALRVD
T3 sequence (P52333 822-1111 limits assumed): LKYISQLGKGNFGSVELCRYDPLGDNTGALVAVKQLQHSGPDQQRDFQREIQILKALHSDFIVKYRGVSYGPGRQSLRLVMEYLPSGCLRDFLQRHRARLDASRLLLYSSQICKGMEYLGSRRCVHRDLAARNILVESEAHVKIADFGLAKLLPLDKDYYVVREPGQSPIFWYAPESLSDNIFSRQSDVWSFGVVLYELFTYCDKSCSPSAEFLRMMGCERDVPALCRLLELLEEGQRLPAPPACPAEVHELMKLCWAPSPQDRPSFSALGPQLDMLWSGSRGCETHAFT

With `CN(CC1CCCCC1)S(=O)(=O)N1CCN(c2ncnc3[nH]ccc23)CC12CC2` [Example 15, 7-(7H-Pyrrolo[2,3-d]pyrimidin-4-yl)-4,7-diaza-spiro[2.5]octane-4-sulfonic acid cyclohexylmethyl-methyl-amide], the 50% effective concentration (EC50) is 100 to 500 nM at TYK2, < 100 nM at JAK1, < 100 nM at JAK3 and < 100 nM at JAK2.

As for `CN(CCc1ccc(F)cc1)S(=O)(=O)N1CCN(c2ncnc3[nH]ccc23)CC12CC2` [Example 16, 7-(7H-Pyrrolo[2,3-d]pyrimidin-4-yl)-4,7-diaza-spiro[2.5]octane-4-sulfonic acid [2-(4-fluoro-phenyl)-ethyl]-methyl-amide], the concentration giving a half-maximal response (EC50) at TYK2 was 100 to 500 nM; on JAK1, < 100 nM; at JAK3, < 100 nM; on JAK2, < 100 nM.

In the case of `CN(CCc1cccc(F)c1)S(=O)(=O)N1CCN(c2ncnc3[nH]ccc23)CC12CC2` [Example 17, 7-(7H-Pyrrolo[2,3-d]pyrimidin-4-yl)-4,7-diaza-spiro[2.5]octane-4-sulfonic acid [2-(3-fluoro-phenyl)-ethyl]-methyl-amide], the EC50 at TYK2, on JAK1, at JAK3 and at JAK2 was < 100 nM in each case.

Regarding `O=S(=O)(N(CCc1ccccc1)CCc1ccccc1)N1CCN(c2ncnc3[nH]ccc23)CC12CC2` [Example 18, 7-(7H-Pyrrolo[2,3-d]pyrimidin-4-yl)-4,7-diaza-spiro[2.5]octane-4-sulfonic acid diphenethylamide], the EC50 at TYK2 is > 500 nM; at JAK1 it was 100 to 500 nM; on JAK3, > 500 nM; at JAK2, 100 to 500 nM.

Take `N#CCN(CCc1ccccc1)S(=O)(=O)N1CCN(c2ncnc3[nH]ccc23)CC12CC2` [Example 19, 7-(7H-Pyrrolo[2,3-d]pyrimidin-4-yl)-4,7-diaza-spiro[2.5]octane-4-sulfonic acid cyanomethyl-phenethyl-amide]: the EC50 at TYK2, on JAK1, on JAK3 and on JAK2 was < 100 nM each time.

Consider `O=S(=O)(N(CCc1ccccc1)CC1CCCCO1)N1CCN(c2ncnc3[nH]ccc23)CC12CC2` (stereo not drawn) [Example 21, 7-(7H-Pyrrolo[2,3-d]pyrimidin-4-yl)-4,7-diaza-spiro[2.5]octane-4-sulfonic acid phenethyl-(tetrahydro-pyran-2-ylmethyl)-amide], for which the EC50 was > 500 nM on TYK2, < 100 nM on JAK1, 100 to 500 nM on JAK3 and < 100 nM at JAK2.

With `COCCN(CCc1ccccc1)S(=O)(=O)N1CCN(c2ncnc3[nH]ccc23)CC12CC2` [Example 22, 7-(7H-Pyrrolo[2,3-d]pyrimidin-4-yl)-4,7-diaza-spiro[2.5]octane-4-sulfonic acid (2-methoxy-ethyl)-phenethyl-amide], the EC50 on TYK2 was 100 to 500 nM; at JAK1, < 100 nM; on JAK3, < 100 nM; at JAK2 it was < 100 nM.

On to `CC#CCN(CCc1ccccc1)S(=O)(=O)N1CCN(c2ncnc3[nH]ccc23)CC12CC2` [Example 23, 7-(7H-Pyrrolo[2,3-d]pyrimidin-4-yl)-4,7-diaza-spiro[2.5]octane-4-sulfonic acid but-2-ynyl-phenethyl-amide], for which the half-maximal effective concentration (EC50) on TYK2 is > 500 nM; on JAK1, < 100 nM; on JAK3, 100 to 500 nM; at JAK2, < 100 nM.

For the molecule `O=S(=O)(N(CCc1ccccc1)CCn1cccn1)N1CCN(c2ncnc3[nH]ccc23)CC12CC2` [Example 24, 7-(7H-Pyrrolo[2,3-d]pyrimidin-4-yl)-4,7-diaza-spiro[2.5]octane-4-sulfonic acid phenethyl-(2-pyrazol-1-yl-ethyl)-amide], the EC50 at TYK2 was 100 to 500 nM; on JAK1, < 100 nM; at JAK3 it was < 100 nM; at JAK2, < 100 nM.
